In patent publication US10738041B2, “Ferroportin inhibitors” (Vifor (International) AG, priority 2015, dated 2020):
Marks after values point to notes of the source that are not given here.

Columns and labels:
naïve WT C57BL/6 mice = assay: Hypoferremia in naïve mice; assay type: in vivo, mouse; conditions: for inhibition in vivo at 10 mg/kg / inhibition in vivo at 30 mg/kg / inhibition in vivo at 100 mg/kg: Mus musculus, po, 3 h, naïve WT C57BL/6 mice, relative to vehicle, read-out: Serum Iron Reduction at 3 h (%); for inhibition in vivo at 10 mg/kg: Dose 10 mg/kg p.o.; for inhibition in vivo at 30 mg/kg: Dose 30 mg/kg p.o.; for inhibition in vivo at 100 mg/kg: Dose 100 mg/kg p.o.
Protocol: Female C57BL/6 mice (Janvier, France) at age of 9 weeks were fed a standard diet (Harlan Provimi Kliba 3436) and treated per os (p.o.) with compounds or the corresponding amount of vehicle at a volume of 10 ml/kg body weight. Fpn inhibitors were formulated in 0.5% methylcellulose/water or 20% cremophor EL/water and dosed p.o. in mice at 10, 30 or 100 mg/kg body weight. Three hours later, mice were pre terminally anesthetized in isoflurane chambers and blood was collected by retro-orbital bleeding. Mice were sacrificed by cervical dislocation and spleens, livers and duodena were harvested and used for biomarker analysis. All experiments have been conducted in compliance with the license approved by the responsible veterinarian authorities. Serum was isolated by centrifugation of blood into gel-containing microtainers and serum iron was determined by the MULTIGENT Iron assay (Abbott Diagnostics, 6K95). Eight mice per group were used and one-way ANOVA with Bonferroni's multiple comparison test was performed to analyze the statistical differences between the experimental groups.

ferroportin = target: T1, ferroportin (Homo sapiens, UniProt Q9NP59); assay: Inhibition of Iron Efflux by Ferroportin Inhibitors; assay type: cell-based; conditions: T47D cells, 58Fe in supernatant, 20 h; representative (FIG. 2)
T1 construct: host or cells: T47D cells
T1 sequence (Q9NP59 1-571): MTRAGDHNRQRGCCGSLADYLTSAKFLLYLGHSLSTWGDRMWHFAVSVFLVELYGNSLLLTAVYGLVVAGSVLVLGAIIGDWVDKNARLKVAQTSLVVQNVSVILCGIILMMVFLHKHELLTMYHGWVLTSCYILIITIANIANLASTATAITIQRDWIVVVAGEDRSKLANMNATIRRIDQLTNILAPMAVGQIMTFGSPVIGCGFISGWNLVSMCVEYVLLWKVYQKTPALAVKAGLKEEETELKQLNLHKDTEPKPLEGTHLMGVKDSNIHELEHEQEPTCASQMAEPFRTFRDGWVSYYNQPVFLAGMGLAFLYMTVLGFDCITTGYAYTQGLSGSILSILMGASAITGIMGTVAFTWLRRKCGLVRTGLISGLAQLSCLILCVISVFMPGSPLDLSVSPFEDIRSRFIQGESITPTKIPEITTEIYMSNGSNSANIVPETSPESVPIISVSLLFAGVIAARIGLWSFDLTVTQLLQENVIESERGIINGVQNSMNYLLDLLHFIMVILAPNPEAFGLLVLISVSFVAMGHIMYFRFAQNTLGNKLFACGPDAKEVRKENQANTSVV
Protocol: The activity of hepcidin and ferroportin inhibitor compounds regarding their ability to block iron export via ferroportin was tested on T47D cells (ECACC, Cat. 85102201) as described below.
Cells were plated in 24-well plates (Greiner, Cat. 662160) containing 350,000 cells/well and incubated overnight with 100 μM ^58Fe (^58Fe(II)-Sulfate, Vifor Pharma Batch No. ROR 3085) in 500 μM L-Ascorbic Acid (Sigma Aldrich, Cat. 795437) containing growth medium. […] A serial dilution of hepdicin (Bachem) or ferroportin inhibitors (4 μM-0.0064 μM, 5 fold dilution) was added in a total volume of 0.6 ml per well. Cells were incubated at 37° C. with 5% CO2 for 20 h. Supernatants were collected and ^58Fe was measured using inductively coupled plasma mass spectrometry (ICP-MS, Thermo Scientific, Element 2). Pellets were harvested for protein concentration measurements. Results are plotted as ng^58Fe in supernatant per mg protein in cell lysates.

b2m−/− mice [1] = assay: Correction of hyperferremia in beta2-microglobulin deficient mice; assay type: in vivo, mouse; conditions: for Serum Iron Reduction (%): blood collected 3 hours (##) after administration
Description: Mutations in genes involved in sensing the systemic iron stores, such as hepcidin (Hamp1), hemochromatosis protein (HFE), hemojuvelin (HJV) and transferrin receptor 2 (TFR2) cause iron overload in mice and men. HFE, HJV and TFR2 molecules on hepatocytes are necessary for signaling of appropriate hepcidin production and their deficiency results in pathophysiologically low hepcidin levels and excessive iron absorption. HFE mutations is the most frequent cause of hereditary hemochromatosis (HH) in Caucasian adults. HFE is a MHC class I-like membrane molecule that associates with beta 2-microglobulin and participates in hepcidin transcriptional regulation through the bone morphogenetic protein receptor (BMPR) pathway. HFE−/− mice have decreased hepcidin levels, develop hyperferremia and high hepatic iron levels, which makes them a suitable animal model for studying iron overload in humans (Zhou, 1998). Mice deficient in beta 2-microglobulin (b2m−/−) develop hyperferremia and hemochromatosis similarly to HFE−/− animals, as beta 2-microglobulin is necessary for the cell-surface expression and function of HFE (Rothenberg and Voland, 1996). Due to the unavailability of HFE−/− mice, b2m−/− mice were used as a model of iron overload.
Female and male homozygous b2m−/− mice were supplied from Jackson Laboratories (B6.129P2-B2mtm1Unc/J, Stock Number: 002087) at age of 6 to 7 weeks and fed standard diet (Harlan Provimi Kliba 3436) ad libitum. Age and gender matched WT C57BL/6 mice were supplied by Charles River. To study the acute effects of ferroportin (Fpn) inhibitors in iron overload b2m−/− mice were treated with compounds or the corresponding amount of vehicle at a volume of 10 ml/kg body weight. […] WT controls received only vehicle. Three hours later, mice were pre-terminally anesthetized in isoflurane chambers and blood was collected by retro-orbital bleeding. Mice were sacrificed by cervical dislocation and spleens, livers and duodena were harvested and used for biomarker analysis. All experiments have been performed in compliance with license approved by the responsible veterinarian authorities. Serum was isolated by centrifugation of blood into gel-containing microtainers (BD Biosciences) and serum iron was determined by the MULTIGENT Iron assay (Abbott Diagnostics, Cat. 6K95). Four to nine mice per group were used and one-way ANOVA with Bonferroni's multiple comparison test was applied to analyze the statistical differences between the experimental groups.

b2m−/− mice [2] = assay: Prevention of iron overload in beta2-microglobulin deficient mice; assay type: in vivo, mouse; conditions: 14 day treatment; for 58Fe Liver Iron Reduction (%): ICP-MS; for Total Liver Iron Reduction (%) / Total Spleen Iron Increase (%): ICP-OES
Protocol: The efficacy of the Fpn inhibitors to prevent liver iron accumulation in b2m−/− mice was investigated. Three weeks old b2−/− mice fed LID were dosed with either Fpn inhibitor or vehicle (methylcellulose; 10 ml/kg). Mice had access to drinking water supplemented with 1 mM^58Fe(II)-sulfate and 10 mM ascorbic acid. Dosing of Fpn inhibitor or vehicle followed by exposure to iron-containing water was repeated for 14 days. Mice were euthanized and the liver and spleen iron contents were analyzed by ICP-OES (all iron isotopes) and liver tissue was also analyzed for ^58Fe concentration (ICP-MS).

[3] = injection of synthetic hepcidin in WT naïve mice (Rivera, 2005; FIG. 3A)

Q: `O=C(NCc1ccccn1)c1csc(CCNCc2nc3ccccc3[nH]2)n1` [Example 12] was tested. Which inhibition in vivo at 10 mg/kg (naïve WT C57BL/6 mice) did it give?
A: 15%

Q: What about the inhibition in vivo at 30 mg/kg (naïve WT C57BL/6 mice) of the same compound?
A: 20%

Q: What about the inhibition in vivo at 100 mg/kg (naïve WT C57BL/6 mice) of the same compound?
A: 45%

Q: `CC[C@H](C)[C@@H]1NC(=O)[C@@H](NC(=O)[C@@H](NC(=O)[C@@H]2CCCN2C(=O)[C@H](Cc2ccccc2)NC(=O)[C@H](Cc2c[nH]cn2)NC(=O)[C@@H](NC(=O)[C@@H](N)CC(=O)O)[C@@H](C)O)[C@@H](C)CC)CSSC[C@@H](C(=O)N[C@@H](CCCCN)C(=O)N[C@H](C(=O)O)[C@@H](C)O)NC(=O)[C@@H]2CSSC[C@@H]3NC(=O)[C@@H]4CSSC[C@H](NC(=O)[C@H](Cc5ccccc5)NC1=O)C(=O)N[C@@H](CSSC[C@H](NC(=O)[C@H](CCCCN)NC(=O)[C@H](CO)NC(=O)[C@H](CCCNC(=N)N)NC(=O)[C@H](Cc1c[nH]cn1)NC3=O)C(=O)NCC(=O)N[C@@H](CCSC)C(=O)N2)C(=O)NCC(=O)N4` [hepcidin, reference compound] was tested. Which IC50 (ferroportin) did it give?
A: 86 nM

Q: What about the “reduction of serum iron levels from the vehicle control” value (naïve WT C57BL/6 mice; [3]) of the same compound?
A: 40-50%

Q: And the “time of maximal effect on serum iron post treatment” value (naïve WT C57BL/6 mice; [3])?
A: 3 to 4 h

Q: What does the source list for `O=C(NCc1ncccc1F)c1coc(C2CN(CCc3nc4ccccc4[nH]3)C2)n1` [Example 208]?
A: inhibition in vivo at 10 mg/kg (naïve WT C57BL/6 mice): 50%; inhibition in vivo at 30 mg/kg (naïve WT C57BL/6 mice): 65%; inhibition in vivo at 100 mg/kg (naïve WT C57BL/6 mice): 73%; Serum Iron Reduction (%) (b2m−/− mice [1]; female, Dose 20 mg/kg oral): 9%; Serum Iron Reduction (%) (b2m−/− mice [1]; female, Dose 60 mg/kg oral): 49*** %; Serum Iron Reduction (%) (b2m−/− mice [1]; male, Dose 20 mg/kg oral): 44%; Serum Iron Reduction (%) (b2m−/− mice [1]; male, Dose 60 mg/kg oral): 67** %; 58Fe Liver Iron Reduction (%) (b2m−/− mice [2]; female, 20 mg/kg p.o. b.i.d.): 71* %; Total Liver Iron Reduction (%) (b2m−/− mice [2]; female, 20 mg/kg p.o. b.i.d.): 15%; Total Spleen Iron Increase (%) (b2m−/− mice [2]; female, 20 mg/kg p.o. b.i.d.): 56** %; 58Fe Liver Iron Reduction (%) (b2m−/− mice [2]; female, 60 mg/kg p.o. b.i.d.): 87** %; Total Liver Iron Reduction (%) (b2m−/− mice [2]; female, 60 mg/kg p.o. b.i.d.): 8%; Total Spleen Iron Increase (%) (b2m−/− mice [2]; female, 60 mg/kg p.o. b.i.d.): 150*** %; 58Fe Liver Iron Reduction (%) (b2m−/− mice [2]; male, 20 mg/kg p.o. b.i.d.): 58%; Total Spleen Iron Increase (%) (b2m−/− mice [2]; male, 20 mg/kg p.o. b.i.d.): 21%; 58Fe Liver Iron Reduction (%) (b2m−/− mice [2]; male, 60 mg/kg p.o. b.i.d.): 94** %; Total Liver Iron Reduction (%) (b2m−/− mice [2]; male, 60 mg/kg p.o. b.i.d.): 84** %; Total Spleen Iron Increase (%) (b2m−/− mice [2]; male, 60 mg/kg p.o. b.i.d.): 43%

Q: With `Cc1cnccc1CNC(=O)c1csc(CCNCc2nc3ccccc3[nH]2)n1` [Example 90] as the compound, how does the inhibition in vivo at 10 mg/kg (naïve WT C57BL/6 mice) read?
A: 0%

Q: And the inhibition in vivo at 30 mg/kg (naïve WT C57BL/6 mice)?
A: 0%

Q: What about the inhibition in vivo at 100 mg/kg (naïve WT C57BL/6 mice) of the same compound?
A: 40%

Q: What does the source list for `O=C(NCc1ncccc1F)c1coc(CCNCc2nc3ccccc3[nH]2)n1` [Example 126]?
A: inhibition in vivo at 10 mg/kg (naïve WT C57BL/6 mice): 7%; inhibition in vivo at 30 mg/kg (naïve WT C57BL/6 mice): 23%; inhibition in vivo at 100 mg/kg (naïve WT C57BL/6 mice): 62%

Q: How did the inhibition in vivo at 10 mg/kg (naïve WT C57BL/6 mice) turn out when `O=C(NCc1ncccc1F)c1coc(CCNCCc2nc3cc(F)ccc3[nH]2)n1` [Example 250] was run?
A: 5%

Q: What about the inhibition in vivo at 30 mg/kg (naïve WT C57BL/6 mice) of the same compound?
A: 18%

Q: And the inhibition in vivo at 100 mg/kg (naïve WT C57BL/6 mice)?
A: 40%

Q: For `O=C(NCc1ncccc1F)c1csc(CCNCCc2nc3ccccc3[nH]2)n1` [Example 94], which inhibition in vivo at 10 mg/kg (naïve WT C57BL/6 mice) is on record?
A: 30%

Q: And the inhibition in vivo at 30 mg/kg (naïve WT C57BL/6 mice)?
A: 50%

Q: And the inhibition in vivo at 100 mg/kg (naïve WT C57BL/6 mice)?
A: 80%

Q: And the “correction of elevated serum iron” value (b2m−/− mice [1]; b2m−/− mice, 50 mg/kg p.o. for 3 h (FIG. 5))?
A: corrected the elevated serum iron to the levels observed in WT controls

Q: What about the “Total Liver Iron Reduction (%)” value (b2m−/− mice [2]; female, 60 mg/kg p.o. b.i.d.) of the same compound?
A: 57%

Q: And the “Total Spleen Iron Increase (%)” value (b2m−/− mice [2]; female, 60 mg/kg p.o. b.i.d.)?
A: 65%

Q: What about the “Total Liver Iron Reduction (%)” value (b2m−/− mice [2]; male, 60 mg/kg p.o. b.i.d.) of the same compound?
A: 79%
